Marks after values point to notes of the source that are not given here.

These results are taken from patent US20110218188A1, “SUBSTITUTED (PYRIDYL)-AZINYLAMINE DERIVATIVES AS FUNGICIDES” (priority 2008, published 2011).

The first series is described as follows: Measurement of logP values by HPLC on reversed phase columns (EEC directive 79/831 Annex V.A8). It counts as physicochemical. To be noted: pH 2.3.
As for `CN(C)C(=O)c1cccc(-c2ccnc(Nc3ccnc(Cl)c3)n2)n1` [Example A34], the logP was 1.96^[b].

Staying with this series, now noted: pH 2.7.
In turn, `CC(C)N(C)C(=O)c1cc(-c2ncnc(Nc3cccc(Cl)c3)n2)ccn1` [Example B158] showed a logP of 2.96.
In turn, `CC(C)CN(C)C(=S)c1cc(-c2ncnc(Nc3ccc(F)c(C(F)F)c3)n2)ccn1` [Example B335] returned a log partition coefficient (logP) of 3.71.
Take `Cc1ccc(Nc2ncnc(-c3ccnc(C(=O)NC4CC4)c3)n2)cc1Cl` [Example B226]: the logP is listed as 3.62. The logP values of the last two molecules are within 0.2 log units of each other.
Regarding `O=C(NC1COC1)c1cc(-c2ncnc(Nc3cccc(Cl)c3)n2)ccn1` [B112], the logP turned out to be 2.6.
For `CCN(C)C(=S)c1cc(-c2ncnc(Nc3cccc(F)c3)n2)ccn1` [Example B10], the logP was 2.94.
The molecule `COC(=O)c1cc(-c2ncnc(Nc3ccc(F)c(OC)c3)n2)ccn1` [B416] showed a logP of 2.43.
The molecule `CCCN(CCC)C(=O)c1cc(Nc2nccc(-c3ccnc(C(=O)N(CCC)CCC)c3)n2)ccn1` [Example A12] displayed a logP of 2.54.
`O=C(c1cc(-c2ncnc(Nc3cccc(Cl)c3)n2)ccn1)N1CCCCCC1` [Example B138]: the logP came to 3.46.
Molecule `CCN(C)C(=O)c1cc(-c2ncnc(Nc3cccc(C(F)(F)F)c3)n2)ccn1` [Example B256] came in with a logP of 2.86.
With `O=C(NC1CC1)c1cc(-c2ncnc(Nc3ccc(F)c(Cl)c3)n2)ccn1` [Example B192], the lipophilicity (logP) turned out to be 3.31.
For the molecule `CC(=NNc1ncc(C(F)(F)F)cc1Cl)c1cc(-c2ncnc(Nc3cccc(Cl)c3)n2)ccn1` [B90], the logP worked out at 5.46.
In the case of `CN(CC1CC1)C(=O)c1cc(-c2ncnc(Nc3ccc(F)c(Cl)c3)n2)ccn1` [Example B204], the logP stood at 3.23.
`O=C(NCCN1CCOCC1)c1cc(-c2ncnc(Nc3cccc(Cl)c3)n2)ccn1` [Example B105] registered a logP of 1.68.
`CCN(C)C(=O)c1cc(-c2ncnc(Nc3ccc(F)c(F)c3)n2)ccn1` [Example B378] gave a logP of 2.55.
As for `CC(C)CN(C)C(=O)c1cc(-c2ncnc(Nc3cccc(OC(F)(F)F)c3)n2)ccn1` [Example B267], the logP is reported as 3.73.
`Cc1ccc(Nc2ncnc(-c3ccnc(C(=O)N4CCCC4)c3)n2)cc1Cl` [B224] showed a lipophilicity (logP) of 3.26.
Consider `CN(C)C(=O)c1cc(-c2ncnc(Nc3cccc(OC(F)(F)C(F)F)c3)n2)ccn1` [Example B364], for which the log partition coefficient (logP) is recorded as 2.64.
`CCCN(C)C(=O)c1cc(-c2ncnc(Nc3cccc(OC)c3)n2)ccn1` [Example B274] displayed a logP of 2.61.
Same read-out and setting: with `CC(=NNCC(F)(F)F)c1cc(-c2ncnc(Nc3cccc(Cl)c3)n2)ccn1` [Example B76] the figure was 3.58.
Consider `CCC(=NO)c1cc(-c2ncnc(Nc3cccc(Cl)c3)n2)ccn1` (mixture of isomers) [Example B64], for which the log partition coefficient (logP) was found to be 3.24.
Regarding `O=C(c1cc(-c2ncnc(Nc3cccc(Cl)c3)n2)ccn1)N1CCCCC1CO` (stereo not drawn) [Example B165], the log partition coefficient (logP) is 2.48.
`CCOC(=O)CNN=C(C)c1cc(-c2ncnc(Nc3cccc(Cl)c3)n2)ccn1` [Example B77] returned a lipophilicity (logP) of 3.02.
For the molecule `CN(CC(F)F)C(=S)c1cc(-c2ncnc(Nc3ccc(F)c(C(F)F)c3)n2)ccn1` [Example B342], the lipophilicity (logP) worked out at 3.35.
Still for that read-out and setting: for `CN(CC1CC1)C(=S)c1cc(-c2ncnc(Nc3cccc(C(F)F)c3)n2)ccn1` [Example B331] the value was 3.37.
Take `COCCN(C)C(=O)c1cc(-c2ncnc(Nc3cccc(F)c3)n2)ccn1` [Example B9]: the lipophilicity (logP) is reported as 2.26.
In the case of `CCCC(C)NC(=O)c1cc(-c2ncnc(Nc3cccc(Cl)c3)n2)ccn1` (stereo not drawn) [Example B118], the log partition coefficient (logP) is reported as 4.54.
As for `CN(CC(F)F)C(=O)c1cc(-c2ncnc(Nc3ccc(F)c(F)c3)n2)ccn1` [Example B382], the logP worked out at 2.86.
The molecule `CCCN(C)C(=O)c1cc(-c2ncnc(Nc3cccc(C(F)F)c3)n2)ccn1` [Example B286] gave a logP of 2.73.
Take `CC(=NOCC(C)C)c1cc(-c2ncnc(Nc3cccc(Cl)c3)n2)ccn1` (mixture of isomers) [B44]: the logP came to 5.63.
On to `CCN(CC1CCCO1)C(=O)c1cc(-c2ncnc(Nc3cccc(Cl)c3)n2)ccn1` (stereo not drawn) [Example B167], for which the logP stood at 3.09.
`CN(CC(F)F)C(=O)c1cc(-c2ncnc(Nc3ccc(F)c(C(F)F)c3)n2)ccn1` [Example B398] returned a log partition coefficient (logP) of 2.84.
For `CC1CN(C(=O)c2cc(-c3ncnc(Nc4cccc(Cl)c4)n3)ccn2)CC(C)O1` (stereo not drawn) [B154], the logP was 2.92.
`COCc1cccc(Nc2ncnc(-c3ccnc(C(=S)N(C)CC4CC4)c3)n2)c1` [Example B249]: the lipophilicity (logP) turned out to be 3.12.
As to `CC(C)CN(C)C(=O)c1cc(-c2ncnc(Nc3cccc(Cl)c3)n2)ccn1` [Example B151], the logP is 3.42.
The same measure, in the same setting: for `CNN=C(C)c1cc(-c2ncnc(Nc3cccc(Cl)c3)n2)ccn1` [Example B75] the value was 2.27.
`CN(CC1CC1)C(=O)c1cc(-c2ncnc(Nc3ccc(F)cc3)n2)ccn1` [Example B17] had a log partition coefficient (logP) of 2.73.
In the case of `CC(C)CN(C)C(=O)c1cc(-c2ncnc(Nc3ccsc3)n2)ccn1` [Example C16], the logP was 2.63.
On the same count and under the same terms, with `CCN(C)C(=S)c1cc(-c2ncnc(Nc3ccc(F)cc3)n2)ccn1` [Example B23] the figure was 2.8; with `CN(CC1CC1)C(=S)c1cc(-c2ncnc(Nc3ccccc3)n2)ccn1` [Example B337], 3.23.
In the case of `CC(C)=CCN(C)C(=O)c1cc(-c2ccnc(Nc3ccnc(Cl)c3)n2)ccn1` [Example A30], the logP was determined as 2.66.
`CN(CC(F)F)C(=O)c1cc(-c2ncnc(Nc3cccc(C#N)c3)n2)ccn1` [Example B369] showed a logP of 2.45.
`CN(CCC#N)C(=S)c1cc(-c2ncnc(Nc3ccc(F)c(C(F)F)c3)n2)ccn1` [Example B340] came in with a logP of 2.82.
For the molecule `CN(CCC#N)C(=O)c1cc(-c2ncnc(Nc3ccc(F)cc3)n2)ccn1` [Example B14], the logP is 2.14.
On the same count and under the same terms, for `CCN(C)C(=S)c1cc(-c2ncnc(N(C(C)=O)c3cccc(F)c3)n2)ccn1` [Example B339] the value was 2.73; for `CCCCNC(=O)c1cc(-c2ncnc(Nc3cccc(Cl)c3)n2)ccn1` [Example B93], 4.11; for `CCN(CCO)C(=O)c1cc(-c2ncnc(Nc3cccc(Cl)c3)n2)ccn1` [Example B164], 2.25.
Still for that read-out and setting: for `CC(C)CN(C)C(=O)c1cc(-c2ncnc(Nc3ccc(Cl)c(C(F)F)c3)n2)ccn1` [Example B388] the value was 3.58.
Molecule `CCCCCCN(CCCCCC)C(=O)c1cc(-c2ncnc(Nc3cccc(Cl)c3)n2)ccn1` [B174] returned a log partition coefficient (logP) of 6.69.
Same read-out and setting: with `CCN(CC)C(=O)c1cc(-c2ncnc(Nc3cccc(COC)c3)n2)ccn1` [Example B240] the figure was 2.48.

The same series, now with this note: pH 7.8.
For `CCN(CC)C(=O)c1cc(-c2ncnc(Nc3ccc(OC)nc3)n2)ccn1` [Example C4], the log partition coefficient (logP) was 2.11^[c].

Usually logP stands for the decadic logarithm of the partition coefficient of the neutral form, usually between octanol and water. Higher therefore signals higher lipophilicity.
